Assay: adjuvant arthritis screen (Walz et al.), swelling of the non-injected left hind foot on Day 16
Format: in vivo, male inbred Lewis rats
Details: Rattus norvegicus, 384 h, daily day -1 through day 15, read-out: Activity Percent Inhibition; for inhibition in vivo at 33 mg/kg: 33 mg./kg. ip; for inhibition in vivo at 20 mg/kg: 20 mg./kg. po; for inhibition in vivo at 10 mg/kg: 10 mg./kg. ip
Source text: The adjuvant arthritis test described by Walz et al., Ann. Rheum. Dis., 30, 303 (1971) was selected as the method of choice for the determination of the extent of which the novel compounds of the present invention are therapeutically effective as anti-inflammatory agents. Adjuvant arthritis is a crippling deformity in rats resulting from diffuse connective tissue involvement. It is considered by some authorities to be the best available experimental animal model of human rheumatoid arthritis because of its strong clinical and pathological similarities to the human disease and because it can be effectively treated with known anti-arthritic drugs. In this test, lesions resembling those of human rheumatoid arthritis are induced by the injection of complete Freund's adjuvant into one hind leg of a rat. A vigorous inflammatory response occurs in the injected hind leg and reaches its greatest size in about four days. This primary response is followed by the development of a second inflammatory response, appearing about 12-16 days post-injection, that occurs in the uninjected hind leg. While the compounds of the invention are capable of inhibiting the degree of inflammation in both legs, the inhibition of swelling in the uninjected leg at 16 days is considered to be the more meaningful measure of antiarthritic activity.
The adjuvant arthritis screen as described by Walz et al. (Ann. Rheum. Dis., 30: 303 (1971), was used to evaluate the above prepared compounds.
The screen is conducted using male inbred Lewis rats weighing approximately 250 gm. The animals are dosed with drug beginning on day- 1 and continuing daily through day 15. On Day 0, the subplanter surface of the right hind paw is injected with 0.1cc of a 1% suspension of Mycobacterium butyricum (Freunds adjuvant) in Primol (Esso). The swelling of the non-injected left hind foot on Day 16, resulting from immune response to adjuvant, was determined for dosed animals and controls. The foot volume is measured by immersing the paw to the anatomical hairline into a mercury reservoir which is connected to a Statham pressure transducer and a recording device. The results are expressed as % inhibition calculated according to the following equation: [formula] The results obtained are as follows for [drawing 22] where Z is --N(CH3)2 and X is carbon: […]

Work on `O=C(Nc1nc2ccccc2n1CCCN1CCOCC1)c1ccc(C(F)(F)F)cc1` [4-Trifluoromethylphenyl; H; H; drawing 23] yielded an inhibition in vivo at 33 mg/kg of 35%.
Work on `CN1CCN(CCCn2c(NC(=O)c3ccc(C(F)(F)F)cc3)nc3ccccc32)CC1` [4-Trifluoromethylphenyl; H; H; drawing 24] yielded an inhibition in vivo at 20 mg/kg of 51% and an inhibition in vivo at 33 mg/kg of 77%.
`CN1CCN(CCCn2c(NC(=O)c3ccc(C(F)(F)F)cc3)nc3cccnc32)CC1` [4-Trifluoromethylphenyl; H; H; drawing 25] gave an inhibition in vivo at 20 mg/kg of 14%.
Compound `O=C(Nc1nc2ccccc2n1CCCN1CCCCC1)c1ccc(C(F)(F)F)cc1` [4-Trifluoromethylphenyl; H; H; drawing 26, 1-[3-(1-piperidinyl)propyl]-2-(4-trifluoromethylbenzamido)benzimidazole] has an inhibition in vivo at 33 mg/kg of 79%.
`O=C(Nc1nc2ccccc2n1CCCN1CCN(Cc2ccccc2)CC1)c1ccc(C(F)(F)F)cc1` [4-Trifluoromethylphenyl; H; H; drawing 27, 2-(4-trifluoromethylbenzamido)-1-[3-(4-benzyl-1-piperazinyl)-propyl]benzimidazole] showed an inhibition in vivo at 10 mg/kg of 47%.
Work on `O=C(Nc1nc2ccccc2n1CCCN1CCNCC1)c1ccc(C(F)(F)F)cc1` [4-Trifluoromethylphenyl; H; H; drawing 28, 2-(4-trifluoromethylbenzamido)-1-[3-(1-piperazinyl)propyl]benzimidazole] yielded an inhibition in vivo at 10 mg/kg of 28%.
Compound `COc1ccc2c(c1)nc(NC(=O)c1ccc(C(F)(F)F)cc1)n2CCCN1CCN(C)CC1` [4-Trifluoromethylphenyl; OCH3; H; drawing 24] has an inhibition in vivo at 33 mg/kg of 69%.
`CN1CCN(CCCn2c(NC(=O)c3ccc(C(C)(C)C)cc3)nc3ccccc32)CC1` [4-t-Butylphenyl; H; H; drawing 24] showed an inhibition in vivo at 33 mg/kg of 26%.
With `CC(C)(C)CC(=O)Nc1nc2ccccc2n1CCCN1CCOCC1` [(CH3)3 CCH2; H; H; drawing 23] the inhibition in vivo at 33 mg/kg was 13%.
In the case of `CCCCCCCCCC(=O)Nc1nc2ccccc2n1CCCN1CCN(C)CC1` [CH3 (CH2)8; H; H; drawing 24], the inhibition in vivo at 20 mg/kg is reported as 45%.
With `COCC(=O)Nc1nc2ccccc2n1CCCN(C)C` [CH3 OCH2; H; H; Z = N(CH3)2] the inhibition in vivo at 33 mg/kg was 32%.
Work on `COCC(=O)Nc1nc2ccccc2n1CCCN1CCOCC1` [CH3 OCH2; H; H; drawing 23] yielded an inhibition in vivo at 33 mg/kg of 21%.
In the case of `CN1CCN(CCCn2c(NC(=O)C3CCC3)nc3ccccc32)CC1` [Cyclobutyl; H; H; drawing 24], the inhibition in vivo at 33 mg/kg is reported as 34%.
Work on `O=C(Nc1nc2ccccc2n1CCCN1CCCCC1)c1ccco1` [Furyl; H; H; drawing 26] yielded an inhibition in vivo at 33 mg/kg of 12%.
`CN1CCN(CCCn2c(NC(=O)c3ccccc3)nc3cc(C(F)(F)F)ccc32)CC1` [Phenyl; CF3; H; drawing 24] gave an inhibition in vivo at 33 mg/kg of 29%.
With `Cc1cc2nc(NC(=O)c3ccccc3)n(CCCN3CCN(C)CC3)c2cc1C` [Phenyl; CH3; CH3; drawing 24, 1-[3-(4-methyl-1-piperazinyl)propyl]-2-benzamido-5,6-dimethylbenzimidazole] the inhibition in vivo at 20 mg/kg was 31%.
Work on `CN1CCN(CCCn2c(NC(=O)c3ccccc3)nc3cc(Cl)ccc32)CC1` [Phenyl; Cl; H; drawing 24] yielded an inhibition in vivo at 33 mg/kg of 41%.
`Cc1ccc2nc(NC(=O)c3ccccc3)n(CCCN3CCN(C)CC3)c2c1` [Phenyl; H; CH3; drawing 24] showed an inhibition in vivo at 20 mg/kg of 23%.
`CN(C)CCCn1c(NC(=O)c2ccccc2)nc2ccccc21` [Phenyl; H; H; Z = N(CH3)2] showed an inhibition in vivo at 33 mg/kg of 8%.
For `O=C(Nc1nc2ccccc2n1CCCN1CCOCC1)c1ccccc1` [Phenyl; H; H; drawing 23], the inhibition in vivo at 33 mg/kg was 15%.
Compound `O=C(Nc1nc2ccccc2n1CCCN1CCN(Cc2ccccc2)CC1)c1ccccc1` [Phenyl; H; H; drawing 27] has an inhibition in vivo at 10 mg/kg of 44%.
`O=C(Nc1nc2ccccc2n1CCCN1CCNCC1)c1ccccc1` [Phenyl; H; H; drawing 28] gave an inhibition in vivo at 10 mg/kg of 19%.
Work on `COc1ccc2c(c1)nc(NC(=O)c1ccccc1)n2CCCN1CCN(C)CC1` [Phenyl; OCH3; H; drawing 24] yielded an inhibition in vivo at 33 mg/kg of 27%.
`CN1CCN(CCCn2c(NC(=O)c3ccccc3)nc3cc(S(=O)(=O)N(C)C)ccc32)CC1` [Phenyl; SO2 N(CH3)2; H; drawing 24] showed an inhibition in vivo at 20 mg/kg of 32%.
Compound `O=C(C=Cc1ccccc1)Nc1nc2ccccc2n1CCCN1CCCCC1` [Styryl; H; H; drawing 26] has an inhibition in vivo at 33 mg/kg of 33%.
For `CN1CCN(CCCn2c(NC(=O)c3ccc(-c4ccccc4)cc3)nc3ccccc32)CC1` [p-Phenylphenyl; H; H; drawing 24], the inhibition in vivo at 33 mg/kg was 46%.

— patent US4002623A, “Anti-inflammatory 1-[3-(dialkylamino)propyl]-2-acylaminobenzimidazoles and 2-acylamino-3-[3-(dialkylamino)-propyl]imidazo[4,5-b]pyridines” (Pfizer Inc., priority 1974, dated 1977)
